Laboratory results reported in patent US4493843A, “Indole and indoline carboxylic acid compounds and method of use” (May & Baker Limited, priority 1980, dated 1985).
Like-named read-outs stand apart in the source and are kept apart here.

System: serum cholesterol and serum triglycerides
Assay: Hypolipidaemic activity in rats (compound in diet, last 7 of 10 days)
Assay type: in vivo, Male Wistar rats
Details: Rattus norvegicus, po, 168 h, 7 days; for change in vivo at 0.2 % strength: 0.2 % w/w dose in diet; for change in vivo at 0.1 % strength: 0.1 % w/w dose in diet
Description: Hypolipidaemic Activity in Rats
Male Wistar rats each weighing between 120 and 150 g were caged in groups of eight and fed a powdered diet for 10 days. For the last 7 days of that period the test compound was administered orally by mixing the compound in the diet and allowing the animals to feed normally. Food consumption was measured on day 9 for each group.
At noon on day 10 the animals were killed by inhalation of carbon dioxide from solid carbon dioxide. A sample of blood was removed by cardiac puncture and the serum cholesterol and serum triglycerides were analysed by means of an autoanalyser.
Control groups (receiving only the normal, unmedicated diet) were included with each test.
The percentage reductions in the concentrations of serum cholesterol and serum triglycerides were calculated by comparison with the simultaneous controls, for each concentration of the test compound used.

[1] = read-out: % change in serum cholesterol compared with control
[2] = read-out: % change in serum triglycerides compared with control

| Compound | change in vivo at 0.2 % strength [1] | change in vivo at 0.2 % strength [2] | change in vivo at 0.1 % strength [1] | change in vivo at 0.1 % strength [2] |
| --- | --- | --- | --- | --- |
| CCCCCCCCCCCCCc1cc2ccc(C(=O)OCC)cc2[nH]1 [Compound AMM, ethyl 2-(n-tridecyl)indole-6-carboxylate] | -4% | -12% |  |  |
| CCCCCCCCCCCCCCCc1cc2ccc(C(=O)OC)cc2[nH]1 [Compound ANN, methyl 2-(n-pentadecyl)indole-6-carboxylate] | 1% | -25% |  |  |
| CCCCCCCCCCCCCCCc1cc2ccc(C(=O)OCCCC)cc2[nH]1 [Compound APP, n-butyl 2-(n-pentadecyl)indole-6-carboxylate] | -2% | -20% |  |  |
| CCCCCCCCCCCCCCCCCCCCc1cc2ccc(C(=O)OCCCC)cc2[nH]1 [Compound AQQ, n-butyl 2-(n-eicosyl)indole-6-carboxylate] | 6% | -12% |  |  |
| CCCCCCCc1cc2cc(C(=O)OCCCC)ccc2[nH]1 [Compound ARR, n-butyl 2-(n-heptyl)indole-5-carboxylate] | 8% | 20% |  |  |
| CCCCCCCCCCCc1cc2cc(C(=O)OC)ccc2[nH]1 [Compound ATT, methyl 2-(n-undecyl)indole-5-carboxylate] | -16% | -70% |  |  |
| CCCCCCCCCCCc1cc2cc(C(=O)OCCCC)ccc2[nH]1 [Compound AUU, n-butyl 2-(n-undecyl)indole-5-carboxylate] | -14% | -57% |  |  |
| CCCCCCCCCCCCc1cc2cc(C(=O)OC)ccc2[nH]1 [Compound AVV, methyl 2-(n-dodecyl)indole-5-carboxylate] | -21% | -80% | -16% | -65% |
| CCCCCCCCCCCCCCCCCc1cc2cc(C(=O)OC)ccc2[nH]1 [Compound AWW, methyl 2-(n-heptadecyl)indole-5-carboxylate] | -24% |  |  |  |
| CCCCCCCCc1c[nH]c2cc(C(=O)OC)ccc12 [Compound AZZ, methyl 3-(n-octyl)indole-6-carboxylate] | -18% | 24% |  |  |
| CCCCCCCCCCCCCCCCCc1cc2ccc(C(=O)O)cc2[nH]1 [Compound B, 2-(n-heptadecyl)indole-6-carboxylic acid] | 5% | -4% |  |  |
| CCCCCCCCCCCCCCCc1cc2cc(C(=O)OCC)ccc2[nH]1 [Compound BB, ethyl 2-(n-pentadecyl)indole-5-carboxylate] | -19% | -39% |  |  |
| CCCCCCCCCCCCCCCCc1c[nH]c2ccc(C(=O)OC)cc12 [Compound BCC, methyl 3-(n-hexadecyl)indole-5-carboxylate] | 2% | 16% |  |  |
| CCCCCCCCCCCCc1c[nH]c2cc(C(=O)O)ccc12 [Compound BDD, 3-(n-dodecyl)indole-6-carboxylic acid] | -2% | -5% |  |  |
| CCCCCCCCc1c[nH]c2cc(C(=O)O)ccc12 [Compound BEE, 3-(n-octyl)indole-6-carboxylic acid] | -19% | -18% |  |  |
| CCCCCCCCCCCCCCCCc1c[nH]c2cc(C(=O)O)ccc12 [Compound BFF, 3-(n-hexadecyl)indole-6-carboxylic acid] | 7% | -17% |  |  |
| CCCCCCCCCCCCCCCCCCc1c[nH]c2cc(C(=O)O)ccc12 [Compound BGG, 3-(n-octadecyl)indole-6-carboxylic acid] | -7% | -7% |  |  |
| CCCCCCCCCCCCCCCCc1c[nH]c2ccc(C(=O)O)cc12 [Compound BHH, 3-(n-hexadecyl)indole-5-carboxylic acid] | -6% | -10% |  |  |
| CCCCCCCCCCCCCCCCCCc1c[nH]c2ccc(C(=O)O)cc12 [Compound BSS, 3-(n-octadecyl)indole-5-carboxylic acid] | -9% | -11% |  |  |
| CCCCCCCCc1c[nH]c2ccc(C(=O)O)cc12 [Compound BTT, 3-(n-octyl)indole-5-carboxylic acid] | 0% | 15% |  |  |
| CCCCCCCCCCCc1cc2ccc(C(=O)O)cc2[nH]1 [Compound C, 2-(n-undecyl)indole-6-carboxylic acid] |  |  | -28% | -39% |

| Compound | change in vivo at 0.2 % strength [1] | change in vivo at 0.2 % strength [2] | change in vivo at 0.1 % strength [1] | change in vivo at 0.1 % strength [2] |
| --- | --- | --- | --- | --- |
| CCCCCCCCCCCCc1cc2ccc(C(=O)OCC)cc2[nH]1 [Compound CC, ethyl 2-(n-dodecyl)indole-6-carboxylate] | -17% | -57% |  |  |
| CCCCCCCCCCCC1Nc2cc(C(=O)O)ccc2C1C (stereo not drawn) [Compound CNN, 2(RS),3(RS)-2-(n-undecyl)-3-methylindoline-6-carboxylic acid] | -31% | -72% |  |  |
| CCCCCCCc1cc2cc(C(=O)OCC)ccc2[nH]1 [Compound DD, ethyl 2-(n-heptyl)indole-5-carboxylate] | -6% | -25% |  |  |
| CCCCCCCCCCCCCCCCCc1cc2cc(C(=O)O)ccc2[nH]1 [Compound E, 2-(n-heptadecyl)indole-5-carboxylic acid] | -54% | -65% | -42% | -55% |
| CCCCCCCCCCCCCCCc1cc2c(C(=O)OCC)cccc2[nH]1 [Compound EE, ethyl 2-(n-pentadecyl)indole-4-carboxylate] | -5% | -2% |  |  |
| CCCCCCCCCCCc1cc2cc(C(=O)O)ccc2[nH]1 [Compound F, 2-(n-undecyl)indole-5-carboxylic acid] | -37% | -73% | -18% | -43% |
| CCCCCCCCCCCc1cc2ccc(C(=O)OCC)cc2[nH]1 [Compound FF, ethyl 2-(n-undecyl)indole-6-carboxylate] | -13% | -40% |  |  |
| CCCCCCCCCCCc1cc2ccc(C(=O)OCCCC)cc2[nH]1 [Compound GG, n-butyl 2-(n-undecyl)indole-6-carboxylate] | -11% | -35% |  |  |
| CCCCCCCCCCCCCc1cc2cc(C(=O)O)ccc2[nH]1 [Compound H, 2-(n-tridecyl)indole-5-carboxylic acid] | -48% | -68% | -15% | -26% |
| CCCCCCCCCCCCCCCc1cc2cc(C(=O)OCCCC)ccc2[nH]1 [Compound HH, n-butyl 2-(n-pentadecyl)indole-5-carboxylate] | -24% | -50% |  |  |
| CCCCCCCCCCCCCCCc1cc2cccc(C(=O)O)c2[nH]1 [Compound I, 2-(n-pentadecyl)indole-7-carboxylic acid] | -26% | -33% |  |  |
| CCCCCCCCCCCCCCCc1cc2c(C(=O)O)cccc2[nH]1 [Compound J, 2-(n-pentadecyl)indole-4-carboxylic acid] | -9% | -2% |  |  |
| CCCCCCCCCCCCc1cc2cc(C(=O)OCCCC)ccc2[nH]1 [Compound KK, n-butyl 2-(n-dodecyl)indole-5-carboxylate] | -18% | -34% |  |  |
| CCCCCCCCCc1cc2ccc(C(=O)O)cc2[nH]1 [Compound L, 2-(n-nonyl)indole-6-carboxylic acid] | -21% | -25% |  |  |
| CCCCCCCCCCCCCCCc1cc2cc(C(=O)OC)ccc2[nH]1 [Compound LL, methyl 2-(n-pentadecyl)indole-5-carboxylate] | -16% | -22% | -13% | -32% |
| CCCCCCCCCCc1cc2cc(C(=O)O)ccc2[nH]1 [Compound M, 2-(n-decyl)indole-5-carboxylic acid] | -26% | -65% |  |  |
| CCCCCCCCCCCCCCCc1cc2c(C(=O)OCCCC)cccc2[nH]1 [Compound MM, n-butyl 2-(n-pentadecyl)indole-4-carboxylate] | 25% | -41% |  |  |
| CCCCCCCCCCc1cc2ccc(C(=O)O)cc2[nH]1 [Compound N, 2-(n-decyl)indole-6-carboxylic acid] | -20% | -45% |  |  |
| CCCCCCCCCc1cc2cc(C(=O)O)ccc2[nH]1 [Compound O, 2-(n-nonyl)indole-5-carboxylic acid] | -13% | -44% |  |  |
| CCCCCCCCCCCCCCCCc1cc2cc(C(=O)O)ccc2[nH]1 [Compound OO, 2-(n-hexadecyl)indole-5-carboxylic acid] | -52% | -75% |  |  |
| CCCCCCCCc1cc2ccc(C(=O)O)cc2[nH]1 [Compound P, 2-(n-octyl)indole-6-carboxylic acid] | -32% | -37% |  |  |
